Test results from US20100075370A1, “METHOD FOR DETERMINATION OF CELL VIABILITY BY USING FLOW CYTOMETRY WITH FIXED VOLUME ACQUISITION” (TUMORTEC GMBH, priority 2006, published 2010).

Tested on: patient samples (pBMC from CLL patients)
Assay: Cytotoxicity assay of example 1 (new method), chemosensitivity index Ci
Assay type: cell-based, human
Experimental: (2) A more complex standardization is the calculation of an index. In case of the chemosensitivity testing it is not a single value that has to be standardized. The chemosensitivity towards a drug is tested with several concentrations of the drug in parallel in a cell culture assay. […] This method was adopted for the present invention from the analysis of DiSC assays (Staib et al., British Journal of Haematology, 2005, 128, 783-791). The Chemosensitivity Index Ci was designed as a prognostic index for ex vivo chemosensitivity assays. Assay results were expressed as percent tumor cell survival (% TCS). The dose-response curve as a function of the dose-response relationship may be mathematically described by a […] regression model (FIG. 4). The dose-response curve was defined as CS=c1*e^conc*c2 % with cell survival (CS), drug concentration (conc) and the constants c1 and c2. c1 represented the y-axis distance and c2 the slope of the curve. The area under the curve (AUC) as an exact measure for the total dose response relation was defined as AUC=−e^c1/c2, on condition that c2 is less than 0, otherwise AUC is infinite. The chemosensitivity index, Ci, was set up as Ci=e^−AUC*c with a domain between 0 and 1. The drug-specific constant c was used for adjusting the Ci-value of 0.5 as the cut-off point between resistance and sensitivity. The constant c was defined as
with AUCcut-off as the smallest AUC value among all clinical non-responding patients of the training data set. Obviously, all cytotoxic agents given for treatment were ineffective in these patients. The cut-off Ci value must be adjusted to 0.5 for prognosis of the effect of the drug on a patient in vivo when the drug is tested on said patient's cells in vitro using the method of the present invention. Ci values of 0-0.5 indicated resistance and values above 0.5 predicted sensitivity against the drug tested.
Peripheral blood mononuclear cells (pBMC) from a patient with chronic lymphatic leukaemia were isolated from the PB samples as described before (Staib, P. et al., Br. J. Haematol., 128(6):783-91 (2005)), resuspended in RPMI 1640 medium (Biochrom, Berlin, Germany) containing 20 vol. % fetal calf serum (FCS; Biochrom, Berlin, Germany) and added into the precoated 96-well plate with a final cell concentration of 10,000 cells/well and a volume of 100 μl. The plates were then agitated for 15 min in order to solubilize the dried fludarabine phosphate. Subsequently, the plates were incubated for 96 h (37° C., 5% CO2, humidified atmosphere). Thereafter, 50 μl of an 11 μM propidium iodide (PI)-solution in 0.9% aqueous NaCl solution (NaCl 0.9%) (Invitrogen, Leiden, Netherlands) were added and incubated for 15 min at room temperature. PI is a standard flow cytometric viability probe and is used to distinguish viable from nonviable cells. Viable cells with intact membranes exclude PI, whereas the membranes of dead and damaged cells are permeable to PI. PI only stains cells with compromised cell membrane, whilst live cells which have intact membranes are not stained by PI.
The chemosensitivity index Ci based on the DiSC assay as described in Staib, P. et al., Br. J. Haematol., 128(6):783-91 (2005) is known to have a very high accuracy of prediction (98%) for the clinical outcome of a particular chemotherapy (Staib, P. et al., Br. J. Haematol., 128(6):783-91 (2005)). In order to evaluate the accuracy of the cytotoxicity assay as described in example 1 (“new method”), the Ci determination was performed for assay results of patient samples analyzed with the traditional DiSC assay and—in parallel—with the new assay method described in example 1. In total, 22 patient samples were analyzed. Fludara® was used in both assays. The cytotoxicity assay of example 1 was performed as described therein, and the DiSC assay was performed as described in Staib, P. et al., Br. J. Haematol., 128(6):783-91 (2005).

Nc1nc(F)nc2c1ncn2[C@@H]1O[C@H](COP(=O)(O)O)[C@@H](O)[C@@H]1O [Fludarabine phosphate, 2-Fluoro-9-(5-O-phosphono-β-D-arabinofuranosyl)-9H-purin-6-amine]
patients DiSC-Assay resistant / New method sensitive (of 22 patients): 0
patients DiSC-Assay sensitive / New method resistant (of 22 patients): 0
Ci (New Method) (patient #1): 0.99
prediction (New Method) (patient #1): sensitive (values above 0.5 predicted sensitivity against the drug tested)
Ci (New Method) (patient #2): 0.94
prediction (New Method) (patient #2): sensitive (values above 0.5 predicted sensitivity against the drug tested)
Ci (New Method) (patient #3): 0.99
prediction (New Method) (patient #3): sensitive (values above 0.5 predicted sensitivity against the drug tested)
Ci (New Method) (patient #4): 0.89
prediction (New Method) (patient #4): sensitive (values above 0.5 predicted sensitivity against the drug tested)
Ci (New Method) (patient #5): 0.93
prediction (New Method) (patient #5): sensitive (values above 0.5 predicted sensitivity against the drug tested)
Ci (New Method) (patient #6): 0.79
prediction (New Method) (patient #6): sensitive (values above 0.5 predicted sensitivity against the drug tested)
Ci (New Method) (patient #7): 0.74
prediction (New Method) (patient #7): sensitive (values above 0.5 predicted sensitivity against the drug tested)
Ci (New Method) (patient #8): 0.83
prediction (New Method) (patient #8): sensitive (values above 0.5 predicted sensitivity against the drug tested)
Ci (New Method) (patient #9): 0.65
prediction (New Method) (patient #9): sensitive (values above 0.5 predicted sensitivity against the drug tested)
Ci (New Method) (patient #10): 0.74
prediction (New Method) (patient #10): sensitive (values above 0.5 predicted sensitivity against the drug tested)
Ci (New Method) (patient #11): 0.60
prediction (New Method) (patient #11): sensitive (values above 0.5 predicted sensitivity against the drug tested)
Ci (New Method) (patient #12): 0.81
prediction (New Method) (patient #12): sensitive (values above 0.5 predicted sensitivity against the drug tested)
Ci (New Method) (patient #13): 0.65
prediction (New Method) (patient #13): sensitive (values above 0.5 predicted sensitivity against the drug tested)
Ci (New Method) (patient #14): 0.63
prediction (New Method) (patient #14): sensitive (values above 0.5 predicted sensitivity against the drug tested)
Ci (New Method) (patient #15): 0.71
prediction (New Method) (patient #15): sensitive (values above 0.5 predicted sensitivity against the drug tested)
Ci (New Method) (patient #16): 0.35
prediction (New Method) (patient #16): resistant (Ci values of 0-0.5 indicated resistance)
Ci (New Method) (patient #17): 0.41
prediction (New Method) (patient #17): resistant (Ci values of 0-0.5 indicated resistance)
Ci (New Method) (patient #18): 0.35
prediction (New Method) (patient #18): resistant (Ci values of 0-0.5 indicated resistance)
Ci (New Method) (patient #19): 0.24
prediction (New Method) (patient #19): resistant (Ci values of 0-0.5 indicated resistance)
Ci (New Method) (patient #20): 0.36
prediction (New Method) (patient #20): resistant (Ci values of 0-0.5 indicated resistance)
Ci (New Method) (patient #21): 0.41
prediction (New Method) (patient #21): resistant (Ci values of 0-0.5 indicated resistance)
Ci (New Method) (patient #22): 0.24
prediction (New Method) (patient #22): resistant (Ci values of 0-0.5 indicated resistance)
